Measured values published in patent publication US20250320190A1, “Novel Inhibitors of Leucine Carboxyl Methyltransferase-1 (LCMT-1) and Methods of Use Thereof” (Temple University-Of The Commonwealth System of Higher …, priority 2024, published 2025).
Converted amounts (≈) assume the structure as drawn. Values belong to the molecule of their own block, whether it stands above or below them.

Experiments:
Plasma protein binding = type: in vitro ADME; settings: read-out: Plasma Protein Binding (bound fraction) (converted)
Source text: (§1) There is no cause for concern at this stage since there are multiple strategies and reagents for enhancing aqueous solubility for animal in vivo studies (Savjani, K. T., A. K. Gajjar and J. K. Savjani, 2012, ISRN Pharm 2012: 195727.). […] While target tissue exposure is dependent on free, unbound fractions in the plasma, plasma protein binding can protect compounds from hepatic metabolism. Thus, in vivo metabolism and excretion are often determined by a balance between these two properties. In vivo half-life is a complicated property impacted upon by multiple factors and is difficult to predict. […] While these numbers are somewhat low for a drug candidate, they are acceptable for proof of concept tool molecules which can be given multiple times per day and at higher doses to saturate metabolism.

rhLCMT-1 = target: T1, rhLCMT-1 (Homo sapiens, UniProt Q9UIC8); assay: rhLCMT-1 activity assay (dot immunoblot); type: biochemical; settings: each inhibitor 50 μM; 20 μM SAM; 37° C. for 30 minutes
T1 construct: purchased SignalChem (Richmond, British Columbia, Canada)
Experimental: Recombinant human LCMT-1 (rhLCMT-1) and rhPP2Ac were obtained from SignalChem (Richmond, British Columbia, Canada). Methyltransferase assays were performed with 100 ng rhLCMT-1 and 91.62 ng rhPP2Ac (2:1 molar ratio) (28) in reaction buffer containing 20 mM Tris (pH 8.0), 50 mM NaCl, 1 mM EDTA. rhLCMT-1 was incubated with Compound 1 (Chemspace, San Jose, California), Compound 2 (Akos Consulting and Solutions, Amtsgericht, Freiburg, Germany) or sinefungin, a SAM analogue, (Active Motif, Carlsbad, California), each at 50 μM final concentration, for 10 minutes at room temperature. rhPP2Ac was added to the reactions with 20 μM (final concentration) SAM (New England Biolabs, Ipswich, Massachusetts, FIG. 9). […] Reactions were incubated at 37° C. for 30 minutes (FIG. 10). Because the inhibitors gave false positive results with the secondary reactions used in colorimetric and bioluminescent methyltansferase assays, LCMT-1 activity was assessed using dot immunoblots. Reactions were applied to nitrocellulose membranes (Cytiva, Marlborough, Massachusetts). […] Membranes were treated with infrared (IR)-dye anti-mouse antibody (Li-Cor, Lincoln, Nebraska, catalog #926-32210, 1:20,000 dilution) and densities were measured with Li-Cor Image Studio (version 5.2) software. rhLCMT-1 inhibition assays were performed three times, each time with five replicates for each condition.

MDA-MB-231 cells [1] = assay: Western blots; type: cell-based, human; settings: 20 μM, Compound 2 significant at 4 hours
Experimental: (§2) MCF7, MDA-MB-231 and Rosi cells were treated with Compound 1 or Compound 2 at a concentration of 20 μM in complete medium, and lysates were harvested after 2, 4, 6, 8 and 12 hours in radioimmunoprecipitation assay buffer containing protease inhibitors (Boster Bio, Pleasanton, California, catalog #AR1182-1) and phosphatase inhibitors (Santa Cruz Biotechnology catalog #sc-45044 and #sc-45045). Protein concentrations were measured with a bicinchoninic acid assay (G-Biosciences, Saint Louis, Missouri). Fifty micrograms of each lysate were used for bis-tris polyacrylamide gel electrophoresis. Resolved lysates were transferred to nitrocellulose membranes. Membranes were blocked with TBS with 5% bovine serum albumin before incubation with primary antibodies.
(§3) Antibodies obtained from Cell Signaling Technology (Danvers Massachusetts) were, anti-PP2Ac (catalog #2038, 1:1,000 dilution), anti-phospho-adenosine monophosphate-activated protein kinase (pAMPKα2 threonine 172, catalog #2535, 1:1,000 dilution). Antibodies obtained from Proteintech (Rosemont, Illinois) include anti-phospho-receptor-interacting serine/threonine protein kinase-1 antibodies (pRIPK1 serine 161 (catalog #66854-1-Ig, 1:1,000 dilution) and pRIPK1 serine 166 (catalog #28252-1-AP, 1:10,000 dilution), anti-mixed lineage kinase domain like pseudokinase (MLKL, catalog #66675-1-Ig, 1:5,000 dilution), anti-AMPKα2, anti-phospho-acetyl-coenzyme A carboxylase (pACC1 serine 79, catalog #29119-1-AP, 1:1,000 dilution), anti-ACC1 (catalog #21923-1-AP, 1:2,000 dilution) and anti-β-actin (catalog #66009-1-Ig, 1:50,000 dilution). The anti-RIPKI antibody was obtained from AbClonal (Woburn, Massachusetts, catalog #A7414, 1:750 dilution). The anti-phospho-MLKL antibody was obtained from R&D Systems (Minneapolis, Minnesota, 1:1,000 dilution). The LCMT-1 antibody was obtained from Origene (Rockville, Maryland, catalog #TA503127S, 1:2,000 dilution). Appropriate IR-dye secondary antibodies were used (Alexa Fluor® 790-conjugated anti-mouse (catalog #115-655-146, 1:50,000 dilution), Alexa Fluor® 680-conjugated anti-mouse (catalog #115-625-146, 1:50,000 dilution), and Alexa Fluor® 680-conjugated anti-rabbit (catalog #115-625-144, 1:50,000 dilution) were obtained from Jackson ImmunoResearch Laboratories (West Grove, Pennsylvania). Band densities were normalized to β-actin, the endogenous control. At least five replicates were used for statistical analyses.

Rosi cells [2] = assay: Western blots; type: cell-based, human; settings: 20 μM, Compound 2 significant at 6 hours
Experimental: as §2, §3

MCF7 cells [3] = assay: Western blots; type: cell-based, human; settings: 20 μM, lysates after 2, 4, 6, 8 and 12 hours
Experimental: as §2, §3

Kinetic solubility = type: physicochemical; settings: 2% dimethylsulfoxide/PBS, aqueous buffer, kinetic from dmso stock; read-out: Max. Kinetic Solubility
Source text: as §1

Plasma stability = type: in vitro ADME; settings: mouse plasma; read-out: Plasma Stability (t1/2)
Source text: as §1

[4] = Liver microsomal stability; type: in vitro ADME
Source text: as §1

MDA-MB-231 cells [5] = assay: Colony forming assay; type: cell-based, human; settings: 50-3.25 μM, one week
Experimental: (§4) MCF7, MDA-MB-231 and Rosi cells were seeded in 96-well tissue culture plates (Celltreat, Pepperell, Massachusetts) at a density of 90 cells per well (Mayr et al. Int J Mol Sci. 2018; 19(3)). After 24 hours, the media were changed to media containing LB-100 or Compound 2 at various concentrations (50-3.25 μM). Control cells were given fresh media. After one week the media were aspirated and the wells were washed with PBS. Cells were stained with crystal violet solution (0.25 g crystal violet in 20% methanol) for 10 minutes. The wells were washed 6 times with PBS to remove excess crystal violet. Colonies were counted with an ECHO Revolve hybrid microscope at 1.5× magnification. There were ten replicates for each condition.

Rosi cells [6] = assay: Colony forming assay; type: cell-based, human; settings: 50-3.25 μM, one week
Experimental: as §4

MCF7 cells [7] = assay: Colony forming assay; type: cell-based, human; settings: 50-3.25 μM, one week
Experimental: as §4

HEK-293 cells = assay: Cytotoxicity assay (calcein-AM); type: cell-based
Experimental: (§5) HS-5, HEK-293, MCF7, MDA-MB-231 and Rosi cells were seeded in 96-well optical bottom tissue culture plates (Corning, New York) at a density of 2.5×10^3 cells/well. After 24 hours, the media were changed to media containing LB-100 (Cayman Chemical Company, Ann Arbor, Michigan) or Compound 2 at various concentrations (50-0.31 μM). Control cells were given fresh media. After 48 hours the media were aspirated and plates were washed with warmed Dulbecco's phosphate-buffered saline (DPBS) with calcium and magnesium (Sigma-Aldrich, catalog #D1283). Cells were stained with 3 μM calcein-AM (AAT Bioquest, Pleasanton, California, catalog #22002) in DPBS for 30 minutes in the dark at 37° C. Plates were immediately read with a Biotek fluorescent plate reader (excitation 485 nm, emission 520 nm). The cytotoxicity assays were performed at least three times, each time with six replicates per condition.

HS-5 cells = assay: Cytotoxicity assay (calcein-AM); type: cell-based
Experimental: as §5

MDA-MB-231 cells [8] = assay: Cell cycle analysis (BrdU flow cytometry); type: cell-based, human; settings: 20 μM, 24 hours
Experimental: (§6) MCF7, MDA-MB-231 and Rosi cells were seeded in 6-well tissue culture plates (Celltreat) at a density of 5×10^5 cells per well. After 24 hours, the DMEM was changed to media containing 20 μM LB-100 or Compound 2. Control cells were given fresh media. After 24 hours, cells were labeled with 50 μM bromodeoxyuridine (BrdU, BioGems, Westlake Village, California, catalog #5911439). Cells were lifted with 0.25% trypsin, 2.21 mM ethylenediaminetetraacetic acid (Corning catalog #25-053-CI) after 4 hours and fixed with 70% ethanol overnight at 4° C. Cells were pelleted and cellular DNA was denatured with HCl. After neutralization with 1 M Tris, pH 8.5, cells were labeled with FITC-anti-BrdU (Biolegend, San Diego, California, catalog #364104, 5 μL/100 μL cell suspension) and 7-aminoactinomycin-D (7-AAD, Biolegend, catalog #420404, 1 μL/100 μL cell suspension). Cells were analyzed with a Becton-Dickinson FACSymphony™ flow cytometer. Cell cycle analyses were performed three times.

Rosi cells [9] = assay: Cell cycle analysis (BrdU flow cytometry); type: cell-based, human; settings: 20 μM, 24 hours
Experimental: as §6

MCF7 cells [10] = assay: Cell cycle analysis (BrdU flow cytometry); type: cell-based, human; settings: 20 μM, 24 hours
Experimental: as §6

MDA-MB-231 cells [11] = assay: Cytotoxicity assay (calcein-AM); type: cell-based, human; settings: Homo sapiens, MDA-MB-231, 48 h, read-out: Log [μM] EC50 (converted)
Experimental: as §5

MCF7 cells [12] = assay: Cytotoxicity assay (calcein-AM); type: cell-based, human
Experimental: as §5

MDA-MB-231 cells [13] = assay: Annexin V assay; type: cell-based, human; settings: 5-20 μM, 48 hours
Experimental: (§7) MCF7, MDA-MB-231 and Rosi cells were treated with LB-100 and Compound 2 at 5-20 μM concentrations. After 48 hours, cells were lifted with Accutase and washed twice with PBS (pH 7.4) with 10% FBS. Cells were resuspended in annexin V binding buffer (10 mM HEPES (pH 7.4), 140 mM NaCl and 2.5 mM CaCl2)) and labeled with FITC-anti-Annexin V and 7-AAD (Biolegend, FITC Annexin V Apoptosis Detection Kit with 7-AAD, catalog #640922). Cell surface annexin V expression was assessed with flow cytometry.

Rosi cells [14] = assay: Annexin V assay; type: cell-based, human; settings: 5-20 μM, 48 hours
Experimental: as §7

Rosi cells [15] = assay: Cytotoxicity assay (calcein-AM); type: cell-based, human
Experimental: as §5, with “After 24 hours, the media were changed to media containing LB-100 (Cayman Chemical Company, Ann Arbor, Michigan) or Compound 2 at various concentrations (50-0.31 μM).” left out

T1 sequence (Q9UIC8 whole entry): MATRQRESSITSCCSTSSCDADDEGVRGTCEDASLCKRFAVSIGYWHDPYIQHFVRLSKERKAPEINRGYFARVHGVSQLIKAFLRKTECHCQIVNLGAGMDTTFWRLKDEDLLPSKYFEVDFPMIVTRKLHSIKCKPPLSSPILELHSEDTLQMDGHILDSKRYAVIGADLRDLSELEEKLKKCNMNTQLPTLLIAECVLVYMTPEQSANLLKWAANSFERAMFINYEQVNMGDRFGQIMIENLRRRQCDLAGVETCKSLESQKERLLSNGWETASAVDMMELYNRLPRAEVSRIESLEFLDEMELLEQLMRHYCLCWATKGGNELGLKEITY

- fraction unbound (Plasma protein binding): 0.033
- solubility kinetic (Kinetic solubility): 27.1 µM (≈ 7.95 µg/mL)
- half-life (Plasma stability): > 180 min
- half-life ([4]; human liver microsomes, read-out: Liver Microsomal Stability (t1/2) Human): 45.7 min
- half-life ([4]; mouse liver microsomes, read-out: Liver Microsomal Stability (t1/2) Mouse): 20 min
SMILES: O=C(COc1cccc2ccccc12)Nc1ccccc1O [Compound 1, N-(2-Hydroxyphenyl)-2-(1-naphthalenyloxy)acetamide]
- methylation of rhPP2Ac by rhLCMT-1 (rhLCMT-1): did not significantly inhibit PP2Ac methylation
- PP2Ac methylation (MDA-MB-231 cells [1]): did not increase PP2Ac methylation
- PP2Ac methylation (Rosi cells [2]): did not increase PP2Ac methylation
- PP2Ac methylation (MCF7 cells [3]): did not increase PP2Ac methylation

SMILES: CN1CCN(C(=O)C2C(C(=O)O)[C@H]3CC[C@@H]2O3)CC1 (some centres unmarked) [LB-100, reference compound]
- clonogenic colony formation (MDA-MB-231 cells [5]): inhibited colony formation
- clonogenic colony formation (Rosi cells [6]): inhibited colony formation
- clonogenic colony formation (MCF7 cells [7]): inhibited to a lesser extent
- concentration at which survival was significantly inhibited (HEK-293 cells; HEK-293, 48 hours): 20 µM
- EC50 (HEK-293 cells; Homo sapiens, HEK293, 48 h, read-out: Log [μM] EC50 (converted)): 21.4 µM
- EC50 (HS-5 cells; HS5, 48 h, read-out: Log [μM] EC50 (converted)): 36.3 µM
- concentration at which cytotoxicity was significant (HS-5 cells; human, 48 h): 20 µM
- cell cycle effect (MDA-MB-231 cells [8]): induced G2/M-phase arrest
- cell cycle effect (Rosi cells [9]): induced G2/M-phase arrest
- cell cycle effect (MCF7 cells [10]): induced G0/G1 arrest
- EC50 (MDA-MB-231 cells [11]): 6.76 µM
- EC50 (MCF7 cells [12]; Homo sapiens, MCF7, 48 h, read-out: Log [μM] EC50 (converted)): 45.7 µM
- inhibition of survival (MCF7 cells [12]; MCF7, concentrations tested 50-0.31 μM, 48 hours): Neither LB-100 nor Compound 2 significantly inhibited survival
- apoptosis (cell surface annexin V expression) (MDA-MB-231 cells [13]): induced apoptosis
- apoptosis (cell surface annexin V expression) (Rosi cells [14]): induced apoptosis
- EC50 (Rosi cells [15]; Homo sapiens, 48 h, read-out: Log [μM] EC50 (converted)): 21900 µM
- concentration at which survival was significantly inhibited (Rosi cells [15]; Rosi, 48 hours): 20 µM
